Earlier results as cited in patent publication US20170095494A1, “Process for the Extraction of Strawberry P-Coumaroyl Hexose and/or Polyphenols, Extract and Uses Thereof” (Nutra Canada Inc., priority 2014, published 2017).

Test system: AMPK
Details: Bhattacharya et al, 2013, Yoon et al

O=C(O)/C=C/c1ccc(O)cc1 [p-coumaric acid]
impact on AMPK and glucose uptake in muscle cells: increased glucose uptake
